Entries after “also recorded” stand apart in the source; their conditions may differ.
What was measured:
STZ-diabetic rats [1] = assay: von Frey paw withdrawal thresholds, STZ-diabetic rats given multiple dosing regimens (washout protocol), Example 1; format: in vivo, rat
Description: Experimental Animals Ethical approval for this study was obtained from the Animal Experimentation Ethics Committee of The University of Queensland. Adult male Sprague-Dawley (SD) rats (222±4 g) were used for this study. Rats were housed in a temperature controlled room (21+2.0 C) with a 12/12 hour light/dark cycle. Food and water were available ad libitum. Initiation of drug administration occurred at 8-11 weeks post-STZ administration for rats in Experiment 1 (PCT-001) and at 10-12 weeks post-STZ administration for rats in Experiment 2 (PCT-007).
Test Article Tranilast was supplied by the Sponsor and stored at −4° C. until use. Gabapentin (100 mg/kg, dissolved in water for injection) was utilized as the positive control for this study.
Test Article and Vehicle Preparation Test article formulations were prepared freshly on the day of administration by weighing the appropriate amount of bulk powder and suspending it in the required volume of vehicle. Carboxymethyl cellulose ((CMC) 0.5% in water for injection) was utilized as the vehicle for this study.
Test Article Administration. […] The maximum oral gavage volume administered in this study was […]. 4.4
STZ-Diabetic Rat Model of Painful Diabetic Neuropathy. Painful diabetic neuropathy is a common long-term complication of diabetes in humans that develops as a result of a sustained biochemical nerve injury. […] Following the induction of diabetes with intravenous STZ at 70-80 mg/kg, it generally takes 6-8 wks for tactile allodynia, the defining symptom of PDN, to fully develop in both rat hindpaws.
Induction of STZ-Diabetes in Rats. On day 0, rats were anaesthetized with 3% isoflurane:97% O2 and a short polyethylene cannula (0.5 mm ID, 0.8 mm OD) was inserted into the jugular vein to facilitate the intravenous (i.v.) administration of a single dose of streptozotocin (STZ: 70-80 mg/kg). After STZ injection, the cannula was removed and the jugular vein was tied off and the wound was closed. Rats received subcutaneous benzylpenicillin (60 mg) prior to surgery to prevent infection and were kept warm during surgical recovery. Rats were housed singly prior to further experimentation and were monitored daily from the time of STZ administration with regard to general health and well-being.
Von Frey Assessment of Paw Withdrawal Thresholds. Calibrated von Frey filaments were used to determine the lowest mechanical threshold required to evoke a brisk paw withdrawal reflex in the rat hindpaws. Briefly, rats were transferred individually to wire mesh testing cages (20 cm×20 cm×20 cm) and allowed to acclimatize for approximately 10-20 min prior to von Frey testing. Commencing with the von Frey filament that produced the 6 g force, the filament was applied to the plantar surface of the hindpaw until the filament buckled slightly. Absence of a response after 3 s prompted use of the next filament of increasing weight. A withdrawal response within 3 s prompted use of the next filament of decreasing weight. Filaments used produced buckling weights of 2, 4, 6, 8, 10, 12, 14, 16, 18 and 20 g. […] Tactile allodynia is regarded as being fully developed when von Frey PWTs in the injured hindpaws are <6 g.
Restoring von-Frey PWTs in the hindpaws from <6 g to pre-STZ surgery levels (12±2 g) is the treatment goal representing full reversal of tactile allodynia. If drug treatment increases PWTs above pre-surgical baseline values (i.e. >12±2 g), such a response is classified as antinociception. Before administration of STZ, baseline von Frey measurements were assessed. Following STZ administration, baseline PWTs were assessed in the hindpaws at week 8-11 to confirm the development of diabetes-induced tactile allodynia. […]

STZ-diabetic rats [2] = assay: Behavioural observations / adverse effects in STZ-diabetic rats; format: in vivo, rat; conditions: tranilast 30-400 mg/kg oral, 7 consecutive twice-daily bolus doses
Excerpt: Behavioural Observations. STZ-diabetic rats were monitored for visible and audible signs of distress throughout the testing period. The visible signs of distress included behavioural changes such as complete immobility, movement with abnormal gait, agitation, aggression, wet dog shakes, excessive grooming, restlessness with constant movement, repeated sudden movements or staring.

Q: For `COc1ccc(/C=C/C(=O)Nc2ccccc2C(=O)O)cc1OC` [Tranilast, 2-[[3-(3,4-dimethoxyphenyl)-1-oxo-2-propenyl]amino]benzoic acid], which “Mean (±SEM) PWT at the mean time of peak response” value (STZ-diabetic rats [1]; tranilast 300 mg/kg oral, 7th twice-daily dose, 1.5 h post-dosing) is on record?
A: 9.8 (±1.1) g

Q: What about the “Time of peak anti-allodynia post-dosing” value (STZ-diabetic rats [1]; tranilast 300 mg/kg oral, 7th twice-daily dose, multiple dosing regimens) of the same compound?
A: 1 to 1.5 h

Q: What about the “Mean (±SEM) PWT pre-dose” value (STZ-diabetic rats [1]; tranilast 300 mg/kg oral, 7th twice-daily dose, pre-dose) of the same compound?
A: 5.1 (±0.4) g

Q: And the “Anti-allodynia in the hindpaws” value (STZ-diabetic rats [1]; tranilast 30, 100, 200, 300 mg/kg oral, 7 consecutive twice-daily doses, multiple dosing regimens)?
A: significant anti-allodynia was produced only by the 300 mg/kg dosing regimen

Q: And the “Relief of tactile allodynia, dose dependence” value (STZ-diabetic rats [1]; tranilast 100-300 mg/kg oral, 7 consecutive twice-daily doses, up to 5 dosing regimens, 2-3 day washout)?
A: dose-dependent relief of tactile allodynia

Q: What about the “Adverse (behavioural) effects” value (STZ-diabetic rats [2]) of the same compound?
A: no discernible adverse effects; also recorded: did not produce discernible adverse behavioural effects

Source: patent US20090042987A1, “TREATMENT OF NEUROPATHIC PAIN” (priority 2007, published 2009)
